Assay results as given in ChEMBL document CHEMBL4483862, “Open-source discovery of chemical leads for next-generation chemoprotective antimalarials” (2018).

Tested on: Plasmodium berghei
Test: Luciferase/luciferin-expressing antifolate-resistant parasites were used to infect a culture of HepG2 cells that were pre-incubated with compounds. Infected hepatocytes emit light due to the luciferase reaction. Assay results are presented as the percent inhibition of light emission compared to control. […]
Type: functional
Settings: sporozoite; for IC90: read-out: LUCIFERASE INFECTION ASSAY - IC90
[1] = read-out: LUCIFERASE INFECTION ASSAY - IC50

SMILES: Cc1ccc(Nc2nccc(C(F)(F)F)n2)cc1S(=O)(=O)N(C)C
- IC50 (HEPG2TOX_HILL_SLOPE 1.28, HEPG2TOX_R_SQUARED 0.583, PBLUC_HILL_SLOPE 1.84, 1.48, PBLUC_R_SQUARED 0.674, 0.430, read-out: LUCIFERASE INFECTION ASSAY - IC50): 4.96 µM
- IC90: > 10 µM

SMILES: Cc1c(C(=O)O)cc(-c2ccccc2)n1CCNC(=O)OC(C)(C)C
- IC50 [1]: > 9.58 µM
- IC90: > 9.58 µM

SMILES: COc1cc(/C=C(\C#N)c2cccn2C)cc(OC)c1OC
- IC50 (HEPG2TOX_HILL_SLOPE 8.79, HEPG2TOX_R_SQUARED 0.806, read-out: LUCIFERASE INFECTION ASSAY - IC50): > 11.1 µM
- IC90: > 11.1 µM

SMILES: Cc1ccc(Br)cc1NC(=O)C(C)NC(=O)OC(C)(C)C (configuration not stated)
- IC50 [1]: > 10 µM
- IC90: > 10 µM

SMILES: Cc1nn(-c2ccccc2)c(Oc2ccc(Br)cc2)c1CNC1CCC(O)CC1 (configuration not stated)
- IC50 [1]: > 10 µM
- IC90: > 10 µM

SMILES: CC(C)c1nc(N2CCN(CC(=O)N3CCCC3)CC2)c(C#N)c2c1CCC2
- IC50 (FFLUC_HILL_SLOPE 13.3, FFLUC_R_SQUARED 0.232, PBLUC_HILL_SLOPE 4.16, PBLUC_R_SQUARED 0.67, read-out: LUCIFERASE INFECTION ASSAY - IC50): 1.73 µM
- IC90: 2.94 µM

SMILES: CCc1cc(C(=O)Nc2ncccc2O)sc1C
- IC50 (FFLUC_HILL_SLOPE 0.955, FFLUC_R_SQUARED 0.833, PBLUC_HILL_SLOPE 2.67, PBLUC_R_SQUARED 0.448, read-out: LUCIFERASE INFECTION ASSAY - IC50): 4.95 µM
- IC90: > 10 µM

SMILES: O=C1/C(=C2/NC=C(c3ccc(Cl)cc3)O2)Sc2ccccc21
- IC50 (HEPG2TOX_HILL_SLOPE 0.513, HEPG2TOX_R_SQUARED 0.665, PBLUC_HILL_SLOPE 15.6, PBLUC_R_SQUARED 0.39, read-out: LUCIFERASE INFECTION ASSAY - IC50): 9.58 µM
- IC90: > 10 µM

SMILES: Cc1csc(C(C#N)C(=O)CSc2nc(-c3ccc(Br)cc3)nc3ccccc23)n1 (configuration not stated)
- IC50 (FFLUC_HILL_SLOPE 1.1, FFLUC_R_SQUARED 0.67, read-out: LUCIFERASE INFECTION ASSAY - IC50): > 10 µM
- IC90: > 10 µM

SMILES: NC(Cc1ccc(Cl)cc1)c1csc(Nc2ncccn2)n1 (configuration not stated)
- IC50 (HEPG2TOX_HILL_SLOPE 6.68, HEPG2TOX_R_SQUARED 0.347, PBLUC_HILL_SLOPE 658, PBLUC_R_SQUARED 0.395, read-out: LUCIFERASE INFECTION ASSAY - IC50): 5.29 µM
- IC90: 5.31 µM

SMILES: COc1cc(NC(=O)c2cc(N3CCN(c4ccccn4)CC3)ncn2)cc(OC)c1OC
- IC50 (HEPG2TOX_HILL_SLOPE 1.23, HEPG2TOX_R_SQUARED 0.824, PBLUC_HILL_SLOPE 2.21, PBLUC_R_SQUARED 0.872, read-out: LUCIFERASE INFECTION ASSAY - IC50): 0.596 µM
- IC90: 1.61 µM

SMILES: CCc1cc2c(=O)n(Cc3ccco3)c(SCC(=O)N(C)C3CCS(=O)(=O)C3)nc2s1 (configuration not stated)
- IC50 [1]: > 10 µM
- IC90: > 10 µM

SMILES: Cc1nn(-c2ccccc2)c(C)c1C(=O)ONC(=N)c1ccc(C(C)(C)C)cc1
- IC50 (HEPG2TOX_HILL_SLOPE 14.9, HEPG2TOX_R_SQUARED 0.924, PBLUC_HILL_SLOPE 26.9, PBLUC_R_SQUARED 0.601, read-out: LUCIFERASE INFECTION ASSAY - IC50): 2.79 µM
- IC90: 3.03 µM

SMILES: Cc1sc2ncnc(SCC(=O)N3N=C4/C(=C/c5ccccc5)CCCC4C3c3ccccc3)c2c1C (configuration not stated)
- IC50 (HEPG2TOX_HILL_SLOPE 0.257, HEPG2TOX_R_SQUARED 0.0474, read-out: LUCIFERASE INFECTION ASSAY - IC50): > 10 µM
- IC90: > 10 µM

SMILES: O=C(Nc1cc(Cl)ccc1N1CCOCC1)c1ccccc1NS(=O)(=O)c1ccc(Br)s1
- IC50 (FFLUC_HILL_SLOPE 16.2, FFLUC_R_SQUARED 0.517, HEPG2TOX_HILL_SLOPE 1.46, HEPG2TOX_R_SQUARED 0.905, PBLUC_HILL_SLOPE 14.3, PBLUC_R_SQUARED 0.479, read-out: LUCIFERASE INFECTION ASSAY - IC50): 0.994 µM
- IC90: 1.16 µM

SMILES: O=C(NC(=O)N1CCc2c([nH]c3ccccc23)C1C(F)(F)F)c1ccccc1 (configuration not stated)
- IC50 [1]: > 8.52 µM
- IC90: > 8.52 µM

SMILES: CCOC(=O)NC(=O)COC(=O)CCc1ccc(OC)cc1
- IC50 [1]: > 10 µM
- IC90: > 10 µM

SMILES: c1ccc(NCc2ccc(-c3cn4c(-c5ccccc5)cnc4cn3)cc2)cc1
- IC50 (FFLUC_HILL_SLOPE 2.57, FFLUC_R_SQUARED 0.0602, PBLUC_HILL_SLOPE 15.1, PBLUC_R_SQUARED 0.239, read-out: LUCIFERASE INFECTION ASSAY - IC50): 7.8 µM
- IC90: > 8.77 µM

SMILES: O=[N+]([O-])c1ccsc1Oc1ccc(Cl)cc1Cl
- IC50 [1]: > 11.4 µM
- IC90: > 11.4 µM

SMILES: COc1ccc(-c2csc3ncnc(N4CCN(c5ccccc5[N+](=O)[O-])CC4)c23)cc1
- IC50 (HEPG2TOX_HILL_SLOPE 5.61, HEPG2TOX_R_SQUARED 0.324, PBLUC_HILL_SLOPE 1.94, 2.89, PBLUC_R_SQUARED 0.358, 0.293, read-out: LUCIFERASE INFECTION ASSAY - IC50): 6.64 µM
- IC90: > 10 µM

SMILES: CCCOc1ccc(/C=C/C(=O)Nc2ccc(Br)c(C(F)(F)F)c2)cc1OCC
- IC50 (FFLUC_HILL_SLOPE 178, FFLUC_R_SQUARED 0.15, HEPG2TOX_HILL_SLOPE 0.174, HEPG2TOX_R_SQUARED 0.586, PBLUC_HILL_SLOPE 2.73, PBLUC_R_SQUARED 0.361, read-out: LUCIFERASE INFECTION ASSAY - IC50): 7.97 µM
- IC90: > 10 µM

SMILES: CCCn1c(NC(=O)c2ccccc2SCc2c(C)noc2C)nc2ccccc21
- IC50 (FFLUC_HILL_SLOPE 30, FFLUC_R_SQUARED 0.401, HEPG2TOX_HILL_SLOPE 7.23, HEPG2TOX_R_SQUARED 0.341, PBLUC_HILL_SLOPE 15.1, PBLUC_R_SQUARED 0.618, read-out: LUCIFERASE INFECTION ASSAY - IC50): 8.55 µM
- IC90: 9.89 µM

SMILES: CN(Cc1nc(-c2ccccc2)c2ccccc2n1)Cc1nc(=O)c2ccccc2[nH]1
- IC50 [1]: > 10 µM
- IC90: > 10 µM

SMILES: Cc1nc2cc(Nc3nc(CN4CCOCC4)nc4scc(-c5ccccc5)c34)ccc2n1-c1ccccc1
- IC50 [1]: > 10 µM
- IC90: > 10 µM

SMILES: Cc1ccc(C(=O)Nc2nc3ccccc3[nH]2)cc1F
- IC50 (FFLUC_HILL_SLOPE 1.36, FFLUC_R_SQUARED 0.795, PBLUC_HILL_SLOPE 11.8, PBLUC_R_SQUARED 0.45, read-out: LUCIFERASE INFECTION ASSAY - IC50): 3.37 µM
- IC90: 4.06 µM

SMILES: Cc1ccc(CNC(=O)CN2CCCN(Cc3ccc(Cl)cc3)CC2)cc1F
- IC50 (HEPG2TOX_HILL_SLOPE 2.47, HEPG2TOX_R_SQUARED 0.19, PBLUC_HILL_SLOPE 1.42, PBLUC_R_SQUARED 0.29, read-out: LUCIFERASE INFECTION ASSAY - IC50): 4.84 µM
- IC90: > 10 µM

SMILES: O=C(NCc1cc(C(F)(F)F)cc(C(F)(F)F)c1)c1ccc(Cl)c(Cl)c1
- IC50 [1]: > 7.93 µM
- IC90: > 7.93 µM

SMILES: CN(C)CCNc1nc(-c2ccco2)c2c(c1C#N)CCCC2
- IC50 (HEPG2TOX_HILL_SLOPE 3.21, HEPG2TOX_R_SQUARED 0.873, PBLUC_HILL_SLOPE 1.18, PBLUC_R_SQUARED 0.659, read-out: LUCIFERASE INFECTION ASSAY - IC50): 3.31 µM
- IC90: > 10.6 µM

SMILES: O=C(/C=C/c1cnn(Cc2ccccc2)c1)N1CCN(Cc2ccc(Cl)cc2)CC1
- IC50 (PBLUC_HILL_SLOPE 126, PBLUC_R_SQUARED 0.0794, read-out: LUCIFERASE INFECTION ASSAY - IC50): 6.85 µM
- IC90: 6.97 µM

SMILES: O=C1CSC(=O)N1CCN=Cc1c(O)n(-c2ccc(Cl)cn2)c(=O)c2ccccc12
- IC50 [1]: > 10 µM
- IC90: > 10 µM

SMILES: CCc1ccc(Cl)c(CC)c1NC(=O)CCc1c(C)c2ccc(C)cc2oc1=O
- IC50 (HEPG2TOX_HILL_SLOPE 2.1, HEPG2TOX_R_SQUARED 0.669, read-out: LUCIFERASE INFECTION ASSAY - IC50): > 10 µM
- IC90: > 10 µM

SMILES: O=C1C(Cl)=C(Nc2ccccc2)C(=O)c2ccccc21
- IC50 (HEPG2TOX_HILL_SLOPE 3.85, HEPG2TOX_R_SQUARED 0.988, PBLUC_HILL_SLOPE 1.86, PBLUC_R_SQUARED 0.682, read-out: LUCIFERASE INFECTION ASSAY - IC50): 3.78 µM
- IC90: > 11.6 µM

SMILES: c1ccc(C(CCNCc2ccco2)c2ccco2)cc1 (configuration not stated)
- IC50 (HEPG2TOX_HILL_SLOPE 6.65, HEPG2TOX_R_SQUARED 0.638, PBLUC_HILL_SLOPE 2.47, PBLUC_R_SQUARED 0.734, read-out: LUCIFERASE INFECTION ASSAY - IC50): 4.89 µM
- IC90: > 11.7 µM

SMILES: COc1cc(OC)cc(-c2cnc3cnc(-c4ccc(N5CCN(C)CC5)nc4)cn23)c1
- IC50 (HEPG2TOX_HILL_SLOPE 4.69, HEPG2TOX_R_SQUARED 0.215, PBLUC_HILL_SLOPE 12, PBLUC_R_SQUARED 0.625, read-out: LUCIFERASE INFECTION ASSAY - IC50): 7.27 µM
- IC90: > 7.67 µM

SMILES: COc1cccc2sc(NC(=O)C3CCN(C(C)=O)CC3)nc12
- IC50 [1]: > 10 µM
- IC90: > 10 µM

SMILES: CCC/C(=N\n1c(-c2ccc(-c3ccccc3)cc2)cs/c1=N/c1c(C)n(C)n(-c2ccccc2)c1=O)c1ccccc1
- IC50 [1]: > 10 µM
- IC90: > 10 µM

SMILES: c1ccc(Oc2ccccc2-c2cn3c(-c4ccncc4)cnc3cn2)cc1
- IC50 (PBLUC_HILL_SLOPE 3.74, PBLUC_R_SQUARED 0.758, read-out: LUCIFERASE INFECTION ASSAY - IC50): 4.9 µM
- IC90: 8.82 µM

SMILES: COCCN(Cc1nc(=O)c2ccccc2[nH]1)C(=O)C1=NN(c2ccccc2)C(c2ccccc2)C1 (configuration not stated)
- IC50 [1]: > 10 µM
- IC90: > 10 µM

SMILES: Cc1sc(NC(=O)CC(C)NC(=O)c2ccccc2)nc1-c1ccc(F)c(F)c1 (configuration not stated)
- IC50 [1]: > 10 µM
- IC90: > 10 µM

SMILES: COc1ccc(-c2nonc2NC(=O)c2oc3cc(C)ccc3c2C)cc1OC
- IC50 (HEPG2TOX_HILL_SLOPE 1.8, HEPG2TOX_R_SQUARED 0.881, PBLUC_HILL_SLOPE 18.6, PBLUC_R_SQUARED 0.206, read-out: LUCIFERASE INFECTION ASSAY - IC50): 2.77 µM
- IC90: 3.11 µM

SMILES: CCC(CC)CN1C[C@H](OCc2ccccc2)C[C@H]1C(=O)NC(c1ccccc1)c1ccccc1
- IC50 [1]: > 7.01 µM
- IC90: > 7.01 µM
